“And” between values parts separate entries of the source, which are not always exact repeats. Equal values may be shown once. After the bases stand the sugars from the 5' end (letter, count) and the backbone: PS all phosphorothioate, else s phosphorothioate and o phosphodiester by linkage. Methylation of C is not given here. e = 2'-O-(2-methoxyethyl) (MOE); k = constrained ethyl (cEt); d = 2'-deoxy (DNA)
Molecular target: KRAS
Conditions: ASO

Sequence | target mRNA inhibition (A431, 2 µM) | further results
AATAATCCCCATTTCA (sugars k3 d10 k3, PS) | 16% | 
GTACTAGTATGCCTTA (sugars k3 d10 k3, PS) | 50% | 
AACCAGTGTTAAGAGA (sugars k3 d10 k3, PS) | 35% | 
TTGATTTGTCAGCAGG (sugars kkdddddddddkdkdk, PS) | 53% | 
CATTCAAAGTTCACAT (sugars kddddddddddkekek, PS) | 43% | 
CCAGTGTTAAGAGAAC (sugars k3 d10 k3, PS) | 33% | 
ATGCTGTGAAACTCTC (sugars k3 d10 k3, PS) | 58% and 52% and 39% | target mRNA inhibition (A431, 0.185 µM): 26%; target mRNA inhibition (A431, 0.556 µM): 42%; target mRNA inhibition (A431, 1.667 µM): 47%; target mRNA inhibition (A431, 5 µM): 72%
TGTTTATGCAATGTTA (sugars kkkddddddddkekek, PS) | 52% | 
AGATTGTGCTGAGCTT (sugars kkdddddddddkekek, PS) | 38% | 
TTATGGTTAGGGGAAT (sugars k3 d10 k3, PS) | 21% | 
AGGAGTCTTTATAGTA (sugars kkkdddddddddkeke, PS) | 31% | 
CGAGAATGGATATTCA (sugars k3 d10 k3, PS) | 14% | 
ATGCTAATAATTTAGT (sugars k3 d10 k3, PS) | 11% | 
CTTGATTTGTCAGCAG (sugars kkkddddddddkekek, PS) | 41% | 
TCTCCATTAGTAAATA (sugars k3 d10 k3, PS) | 13% | 
TCCATTTATGTGACTA (sugars kkdddddddddkekek, PS) | 32% | 
TAAGGTAAAAGCTAAC (sugars k3 d10 k3, PS) | 20% | 
ACCAGTGTTAAGAGAA (sugars kkkdddddddddkeke, PS) | 40% | 
GCATGAAGATTTCTGG (sugars k3 d10 k3, PS) | 62% and 66% and 60% | 
GCTATTAGGAGTCTTT (sugars k3 d10 k3, PS) |  | target mRNA inhibition (A431, 0.125 µM): 68% and 67%; target mRNA inhibition (A431, 0.185 µM): 33% and 16% and 26%; target mRNA inhibition (A431, 0.556 µM): 50% and 47% and 44%; target mRNA inhibition (A431, 1.667 µM): 77% and 67% and 58%; target mRNA inhibition (NCI-H460, 0.037 µM): 69.9%
GATGTAGGGCATTTCT (sugars k3 d10 k3, PS) | 0% | 

Sequence | target mRNA inhibition (A431, 2 µM) | further results
GGAGTCTTTATAGTAA (sugars kkdddddddddkekek, PS) | 21% | 
CTGTGAAACTCTCTAT (sugars k3 d10 k3, PS) | 29% | 
GTGAAACTCTCTATGA (sugars k3 d10 k3, PS) | 28% | 
GTGTTTATGCAATGTT (sugars k3 d9 k3 e1, PS) | 59% | target mRNA inhibition (A431, 0.185 µM): 19%; target mRNA inhibition (A431, 0.556 µM): 63%; target mRNA inhibition (A431, 1.667 µM): 79%; target mRNA inhibition (A431, 5 µM): 88%
TAATTAATCCATTTAT (sugars k3 d10 k3, PS) | 0% | 
TGATTTGTCAGCAGGA (sugars kkddddddddddkeke, PS) | 55% | target mRNA inhibition (A431, 0.185 µM): 31%; target mRNA inhibition (A431, 0.556 µM): 48%; target mRNA inhibition (A431, 1.667 µM): 67%; target mRNA inhibition (A431, 5 µM): 8%
CCAGTGTTAAGAGAAC (sugars kkdddddddddkekek, PS) | 43% | 
CTTGTACTAGTATGCC (sugars k3 d10 k3, PS) | 59% | target mRNA inhibition (A431, 0.185 µM): 24% and 13%; target mRNA inhibition (A431, 0.556 µM): 46% and 35%; target mRNA inhibition (A431, 1.667 µM): 67% and 52%; target mRNA inhibition (A431, 5 µM): 77% and 71%
TCTATGAAAGCTCAAA (sugars k3 d10 k3, PS) | 18% | 
GCATTTCTGATGTGAC (sugars k3 d10 k3, PS) | 24% | 
AAAAAAAAATTAATGT (sugars k3 d10 k3, PS) | 16% | 
GGCATTTCTGATGTGA (sugars k3 d10 k3, PS) | 8% | 
ACCATTCAAAGTTCAC (sugars kkkddddddddkdkdk, PS) | 12% | 
TCTTGATTTGTCAGCA (sugars k3 d10 k3, PS) | 62% | target mRNA inhibition (A431, 0.185 µM): 13% and 0%; target mRNA inhibition (A431, 0.556 µM): 22% and 21%; target mRNA inhibition (A431, 1.667 µM): 60% and 47%; target mRNA inhibition (A431, 5 µM): 75% and 69%
AATGGTGAATATCTTC (sugars k3 d10 k3, PS) | 50% | target mRNA inhibition (A431, 0.037 µM): 58%; target mRNA inhibition (A431, 5 µM): 97% and 90%; target mRNA inhibition (NCI-H460, 0.037 µM): 33.3%
AAATTAATGTCTTGGC (sugars k3 d10 k3, PS) | 47% | 
ATGGTGTAACATAGGT (sugars k3 d10 k3, PS) | 59% and 47% and 52% | target mRNA inhibition (A431, 0.185 µM): 17%; target mRNA inhibition (A431, 0.556 µM): 36%; target mRNA inhibition (A431, 1.667 µM): 59%; target mRNA inhibition (A431, 5 µM): 75%
GGGCATTTCTGATGTG (sugars k3 d10 k3, PS) | 7% | 
CAGTGTTAAGAGAACT (sugars kddddddddddkekek, PS) | 23% | 
ACCAGTGTTAAGAGAA (sugars kdddddddddkekeke, PS) | 50% | 
TTCATTGTTTAAAAAA (sugars k3 d10 k3, PS) | 6% | 

Sequence | target mRNA inhibition (A431, 2 µM) | further results
ATGGTGAATATCTTCA (sugars k3 d10 k3, PS) | 64% | target mRNA inhibition (A431, 1.667 µM): 45% and 31%; target mRNA inhibition (A431, 5 µM): 70% and 65%
CATTCAAAGTTCACAT (sugars k3 d10 k3, PS) | 2% | 
GTCCAGTGATACTTTC (sugars kkddddddddddkeke, PS) | 39% | 
ATGCTGTGAAACTCTC (sugars kkdddddddddkekek, PS) | 16% | 
TGGTGTAACATAGGTT (sugars kkddddddddddkeke, PS) | 67% | target mRNA inhibition (A431, 0.185 µM): 28%; target mRNA inhibition (A431, 0.556 µM): 62%; target mRNA inhibition (A431, 1.667 µM): 74%; target mRNA inhibition (A431, 5 µM): 87%; target mRNA inhibition (NCI-H460, 0.037 µM): 64.3%
AACAAATGCTAATAAT (sugars k3 d10 k3, PS) | 0% | 
ATTAGTCTCCATTAGT (sugars k3 d10 k3, PS) | 29% | 
CTTGTTGAGCTATCCA (sugars k3 d10 k3, PS) | 63% | 
AGTGTGACTCAGTTAA (sugars kkdddddddddkekek, PS) | 48% | 
GATTGTGCTGAGCTTG (sugars kkdddddddddkdkdk, PS) | 57% | target mRNA inhibition (A431, 0.185 µM): 0%; target mRNA inhibition (A431, 0.556 µM): 17%; target mRNA inhibition (A431, 1.667 µM): 48%; target mRNA inhibition (A431, 5 µM): 58%
GTTTAAAAAAAAAATT (sugars k3 d10 k3, PS) | 2% | 
CAGTGTGACTCAGTTA (sugars kddddddddddkekek, PS) | 32% | 
TTTTAATGTCACAAGC (sugars k3 d10 k3, PS) | 52% | 
GTATTAACACAGAAGT (sugars k3 d10 k3, PS) | 0% | 
ATGTAGGGCATTTCTG (sugars k3 d10 k3, PS) | 9% | 
AAAAAAATTAATGTCT (sugars k3 d10 k3, PS) | 7% | 
CATTACTTTTTGACAA (sugars k3 d10 k3, PS) | 8% | 
GTGTGACTCAGTTAAA (sugars kkddddddddkekekk, PS) | 38% | 
ATTGTGCAATGGTGAC (sugars k3 d10 k3, PS) | 57% | 
GTGTTTATGCAATGTT (sugars kkkdddddddddkeke, PS) | 66% | target mRNA inhibition (A431, 0.185 µM): 30%; target mRNA inhibition (A431, 0.556 µM): 55%; target mRNA inhibition (A431, 1.667 µM): 80%; target mRNA inhibition (A431, 5 µM): 85%

From the OligoGym collection
